# Results reported in patent publication US6239182A, “Method for preventing sexually transmitted diseases” (priority 1999, dated 2001).
# Legend:
# [1] = test system: Lactobacillus gasseri; experiment: effect on normal vaginal flora (Lactobacillus growth in culture); format: cell-based; conditions: at 0.5 mg/ml
# Protocol: This example illustrates the effect of the inhibitory agents of this invention on the normal vaginal flora. Lactobacillus gasseri, which is found in normal vaginal flora, was obtained from the American Type Culture Collection (Rockville, Md.) and cultured under anaerobic conditions at 37° C. in the presence of the desired test agents. Control samples without added test agents were also run. Samples were collected at twenty minute intervals starting at 120 minutes after the start of incubation through 240 minutes. The absorbance at 550 nm was used to estimate the cell density and inhibitory effects. Nonoxynol-9 was also evaluated for comparison purposes.
# [2] = test system: MT2 cells; experiment: cytotoxicity towards host cells in the viral-binding inhibition assay; format: cell-based; conditions: at the concentration ranges used in the viral-binding inhibition assay
# Protocol: Serial dilutions of the test compounds (ranging from 0.1 μg/ml to 1.0 mg/ml) were added to HIV-1 virus such that 50 μl inoculum produced between 70 to 100 syncytia per well in untreated wells containing MT2 cells. The HIV-1 used was strain IIIs propagated in, and harvested from, a T4-lymphobastoid cell line. Each serial dilution of the test compound with virus was placed in each of three wells containing MT2 cells. The test compound alone was added to a fourth well containing MT2 cells to test for possible cytotoxicity. Triplicate virus control samples (no added test compounds but containing the equivalent amounts of the RPMI medium) were also included.
# [3] = test system: HIV-1; conditions: comparison statement, no data given; cited from earlier work
# [4] = test system: sheep testicular hyaluronidase; experiment: hyaluronidase inhibition (hyaluronic acid hydrolysis); format: biochemical; conditions: pH 5.5, 10 minutes preincubation; inactive = no inhibition at 1 mg/ml
# Protocol: Hyaluronidase activity was quantitatively determined by measuring the extent of hyaluronic acid hydrolysis (i.e., the concentration of N-acetylglucosamine-reactive material formed from enzyme activity). Reaction mixtures (0.25 ml) containing the following were prepared: test compound (variable concentration); 0.1 M sodium acetate; 0.15 M sodium chloride; pH adjusted to 5.5; 7.2 units sheep testicular hyaluronidase (Sigma, Type III; H-2251) contained in an acetate buffer; 0.3 mg/ml hyaluronic acid (Sigma, from bovine vitreous humor; H-7630). The enzyme was preincubated with the test agent (1 mg/ml for screening purposes) for 10 minutes before starting the reaction by the addition of hyaluronic acid. The enzyme reaction was determined using the method of Aronson and Davidson (J. Biol. Chem. 241 437-440 (1967)). The reaction mixture was incubated for 30 minutes at room temperature.
# The reversibility of the hyaluronidase was determined by evaluating enzyme activity at different levels of enzyme (Ackermann and Potter, Proc. Soc. Exp. Biol. Med. 72 1-9 (1949)).
# [5] = test system: vaginal/cervical epithelial and other cells; conditions: background statement; cited from earlier work
substance,measurement,setting,value
Nonoxynol-9,inhibition of Lactobacillus gasseri growth,[1],about 60%
same,toxicity towards the host cells (MT2),[2],did show cytotoxic effects
same,inhibition of the enveloped virus HIV (in words),[3],inhibits
same,IC50 (hyaluronidase),[4],inactive
same,lowest concentration that can injure vaginal/cervical epithelial and other cells,[5],about 0.0005%
